Data on twelve compounds can be found in US20130072506A1, “6,8-DISUBSTITUTED PURINE COMPOSITIONS” (priority 2011, published 2013).

Data set [1] deals with excised wheat leaf tips. Put plainly: Senescence inhibition on winter wheat leaf segments (chlorophyll retention). The data set is classed as in vivo, Triticum aestivum cv. Hereward. To be noted: for Activity (%): at concentration with highest activity, activity of 10^−4 M kinetin set at 100%; for Concentration with highest activity: retention of chlorophyll in excised wheat leaf tips, 96 hours in the dark. On the procedure: Senescence Inhibition by Novel Compounds Tested on Winter Wheat Leaf Segments. Seeds of winter wheat, Triticum aestivum cv. Hereward, were washed under running water for 24 hours and then sown on vermiculite soaked with Knop's solution. They were placed in the grown chamber at 25° C. with a 16/8 hours light period at […]·m^−2·s^−1. After 7 days, the first leaf was fully developed and the second leaf had started to grow. A tip section of the first leaf, approximately 35 mm long, was removed from 5 seedlings and trimmed slightly to a combined weight of 100 mg. The basal ends of the five leaf tips were placed in the wells of a microtiter polystyrene plate containing […] of a cytokinin solution each. The entire plate was inserted into a plastic box lined with paper tissues soaked in distilled water to prevent leaf sections from drying out. After 96 hours incubation in the dark at 25° C., the leaves were removed and chlorophyll extracted by heating at 80° C. for 10 min in 5 ml of 80% ethanol (v/v). The sample volume was then restored to 5 ml by the addition of 80% ethanol (v/v). The absorbance of the extract was recorded at 665 nm. In addition, chlorophyll extracts from fresh leaves and leaf tips incubated in deionized water were measured. The set up of the assay is shown on FIG. 1. From the obtained data, the concentration with highest activity was selected for each compound tested. Relative activity of the compound at this concentration was calculated (see Table 2 below). […] The values shown are means of five replicates and the whole experiment was repeated twice.
The compounds to be tested were dissolved in dimethylsulfoxide (DMSO) and the solution brought up to 10^−3 M with distilled water.

The subject of data set [2] is cytokinin-dependent tobacco callus. Put plainly: Growth of cytokinin-dependent tobacco callus (plant cell division). The conditions noted are these: for Activity (%): at concentration with highest activity, activity of kinetin set at 100%. The data set is classed as cell-based, Nicotiana tabacum L. cv. Wisconsin 38. On the procedure: The effect on plant cell division. Cytokinin-dependent tobacco callus Nicotiana tabacum L. cv. Wisconsin 38 was maintained at 25° C. in darkness on modified MS medium, containing 4 μmol/l nicotinic acid, 2.4 μmol/l pyridoxine hydrochloride, 1.2 μmol/l thiamine, 26.6 μmol/l glycine, 1.37 μmol/l glutamine, 1.8 μmol/1 myo-inositol, 30 g/l of sucrose, 8 g/l of agar, 5.37 μmol/l NAA and 0.5 μmol/l BAP. Subcultivation was carried out every three weeks. Fourteen days before the bioassay, the callus tissue was transferred to the media without BAP. Biological activity was determined from the increase in fresh callus weight after four weeks of cultivation. Five replicates were prepared for each cytokinin concentration and the entire test was repeated twice. From the obtained data, the concentration with highest activity was selected for each compound tested. Relative activity at this concentration was calculated (see Table 4 below).
The cytokinins to be tested were dissolved in dimethylsulfoxide (DMSO) and the solution brought up to 10^−3M with distilled water.

In data set [3] the test system is T-lymphoblastic leukemia cell line CEM. Put plainly: In vitro cytotoxic activity (metabolisation of Calcein AM). In kind it is cell-based, human. To be noted: Homo sapiens, CCRF-CEM, CEM cells, 72 hours incubation, called GI50, read-out: Cell line tested/IC50 (μmol/L) CEM. An outline of the steps: (§1)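 Cells were pre-incubated 24 hours at 2.500-30.000 cells per well, then exposed to six 3-fold dilutions, usually from 100 μM top, for 72 hours at 37° C, 5% CO2, in triplicate. Calcein AM was added at 1 μg/ml final and fluorescence read after 1 hour; GI50 is the concentration halving Calcein AM conversion.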

The test system of data set [4] is breast carcinoma cell line MCF-7. The data set is described as above. In kind it is cell-based, human. The conditions noted are these: Homo sapiens, MCF7 cells, 72 hours incubation, called GI50, read-out: Cell line tested/IC50 (μmol/L) MCF7. The essentials: as §1
Data set [5] has as its system erytroid leukemia cell line K-562. Described as above. The data set is classed as cell-based, human. To be noted: Homo sapiens, K562, K-562 cells, 72 hours incubation, called GI50, read-out: Cell line tested/IC50 (μmol/L) K-562. An outline of the steps: as §1
For data set [6], the system named is melanoma cell line G-361. Described as above. The data set is classed as cell-based, human. The conditions noted are these: Homo sapiens, G-361 cells, 72 hours incubation, called GI50, read-out: Cell line tested/IC50 (μmol/L) G-361. An outline of the steps:
as §1

For data set [7], the system named is normal diploid fibroblasts BJ. Described as above. To be noted: Homo sapiens, BJ cells, 72 hours incubation, called GI50, read-out: Cell line tested/IC50 (μmol/L) BJ. In kind it is cell-based, human. The essentials:
as §1

Data set [8] concerns osteosarcoma cell line HOS. Described as above. In kind it is cell-based, human. The conditions noted are these: Homo sapiens, HOS cells, 72 hours incubation, called GI50, read-out: Cell line tested/IC50 (μmol/L) HOS. The essentials:
as §1

Data set [9] relates to Human diploid fibroblast BJ. Put plainly: In vitro cytotoxic activity (metabolisation of MTT). The conditions noted are these: 72 hours, BJ passage 18-22. In kind it is cell-based. Here is the method:
In vitro Cytotoxic Activity (metabolisation of Mtt). MTT ([…]) assay is a standard colorimetric assay for evaluation of cytotoxicity. Mitochondrial dehydrogenase activity converts yellow MTT into violet formazan which is measured by means of spectrometry.
Human diploid fibroblast BJ (passage 18-22) were seeded into 96-well plate (5.000 cells per well). After 6 hours cultivation medium (DMEM with 5 g/l glucose, 2 mM glutamine, 100 U/ml penicillin, 100 mmg/ml streptomycin, 10% fetal calf serum and sodium bicarbonate) was replaced with the cultivation medium containing test compounds in concentration range of 0-200 μM. Highest concentration was adjusted if the solubility of the compound was limiting. Every concentration was tested in pentaplicate. MTT was added to the cells after 72 hours incubation (final concentration 0.5 mg/ml) and incubation continued for another 3 hours. MTT was solubilised by DMSO and absorbance at 570 nm was measured. Growth inhibition (GI) was estimated using the following equitation: GI=(mean A drug exposed wells−mean Ablank/mean Acontrol wells−mean Ablank)×100%. The GI20 value, the drug concentration causing 20% decrease in mitochondrial dehydrogenase activity, was calculated from the obtained dose response curves.

Data set [10] has as its system Amaranthus caudatus cotyledon/hypocotyl explants. Put plainly: Amaranthus bioassay (betacyanin content). In kind it is in vivo, Amaranthus caudatus var. atropurpurea. The conditions noted are these: for Activity (%): at concentration with highest activity, activity of kinetin set at 100%; for Concentration with highest activity: betacyanin content, 48 hours in darkness. On the procedure: Testing of Novel Compounds in Amaranthus bioassay. Standard Amaranthus bioassay was performed with several modifications. The seeds of Amaranthus caudatus var. atropurpurea were surface-sterilized in 10% N-chlorobenzene sulfonamide (w/v) for 10 min and washed 5 times in deionized water. They were placed in 14 cm Petri dishes containing paper tissues saturated with deionized water. After 72 hours of cultivation at 25° C. in darkness, the roots of the seedlings were cut off. The explants, consisting of two cotyledons and hypocotyls, were placed in 5 cm Petri dishes on two layers of filter paper soaked in 1 ml of incubation medium containing 10 μmol Na2HPO4—KH2PO4, pH 6.8, 5 μmol tyrosine and the cytokinin to be tested. There were 20 explants per dish. The procedure was carried out under a green safe light in a darkroom. After a 48 hours of incubation at 25° C. in darkness, betacyanin was extracted by freezing the explants in 4 ml 3.33 μM acetic acid. The concentration of betacyanin was determined by comparing the absorbance at 537 nm and 620 nm as follows: DA=A537nm−A620nm. From the obtained data, the concentration with highest activity was selected for each compound tested. Relative activity of the compound at this concentration was calculated (see Table 3 below). […] The values shown in Table 3 are means of five replicates and the entire test was repeated twice.
The cytokinins to be tested were dissolved in dimethylsulfoxide (DMSO) and the solution brought up to 10^−3 M with distilled water.

`Brc1nc2ncnc(NCc3ccccc3)c2[nH]1` [Compound 2, 6-Benzylamino-8-bromopurine]: the “Activity (%)” value in data set [1] is reported as 144.76 (±6) %; in data set [2] it was 174.83%. In addition, in data set [1], the “Concentration with highest activity” value is given as 10^−4 mol/l. Besides, the IC50 in [3], in [4], in data set [5], in data set [6], in [7] and in [8] was > 50 µmol/L throughout. Also, the GI20 in data set [9] is >50 µM.
With `Clc1nc2ncnc(NCc3ccccc3)c2[nH]1` [Compound 30, 6-Benzylamino-8-chloropurine], the “Activity (%)” value in data set [1] is given as 124.81 (±1) %; in data set [2], 157.51%. Also, the “Concentration with highest activity” value in data set [1] is reported as 10^−4 mol/l. Also, in data set [9], the GI20 is >100 µM.
In turn, `CN(C)c1nc2ncnc(NCc3ccccc3)c2[nH]1` [Compound 62, 6-Benzylamino-8-dimethylaminopurine] showed a melting point of 217 to 219 °C. Also, in [1], the “Activity (%)” value is on record as 106.13 (±1) % and the “Concentration with highest activity” value is on record as 10^−4 mol/l. Further, the “Activity (%)” value in data set [2] was 165.64%.
`Nc1nc2ncnc(NCc3ccccc3)c2[nH]1` [Compound 83, 8-Amino-6-benzylaminopurine] registered a melting point of 223 to 226 °C. For the same compound, the “Activity (%)” value in data set [2] stood at 197.08%. The IC50 in data set [3] is > 50 µmol/L. The IC50 in data set [4] was > 50 µmol/L. The IC50 in data set [5] is > 50 µmol/L. Besides, in data set [6], the IC50 is > 50 µmol/L. Besides, the IC50 in data set [7] was > 50 µmol/L. For the same compound, the IC50 in data set [8] is > 50 µmol/L. Further, the GI20 in data set [9] was >100 µM.
For the compound `CC(C)=CCNc1ncnc2nc(N)[nH]c12` [Compound 87, 6-(3-methylbut-2-en-1-ylamino)-8-aminopurine], the results for the “Activity (%)” value in data set [10] and in [2] were 171.36% and 150.44%, respectively. Besides, the “Concentration with highest activity” value in [10] is on record as 10^−4 mol/l. Further, the IC50 in data set [3], in data set [4], in [5], in [6], in data set [7] and in [8] was > 50 µmol/L each time. In addition, in data set [9], the GI20 was >100 µM.
Take `COc1nc2ncnc(NCc3ccccc3)c2[nH]1` [Compound 121, 6-Benzylamino-8-methoxypurine]: the “Activity (%)” value in data set [10] is 121.15%; in data set [2], 129.11%. The “Concentration with highest activity” value in [10] is 10^−4 mol/l. Moreover, the IC50 in data set [3], in [4], in data set [5], in data set [6], in data set [7] and in data set [8] was > 50 µmol/L throughout.
With `Sc1nc2ncnc(NCc3ccccc3)c2[nH]1` [Compound 138, 6-Benzylamino-8-sulphanylpurine], the melting point lay in the range of 267 to 269 °C. For the same compound, in data set [1], the “Activity (%)” value is on record as 140.45 (±3) % and the “Concentration with highest activity” value is 10^−4 mol/l. Also, in data set [10], the “Activity (%)” value is given as 111.25% and the “Concentration with highest activity” value is 10^−4 mol/l. Besides, the “Activity (%)” value in data set [2] is 156.66%.
`CSc1nc2ncnc(NCc3ccccc3)c2[nH]1` [Compound 148, 6-Benzylamino-8-methylsulphanylpurine] came in with a melting point of 234 to 237 °C. In addition, the “Activity (%)” value in [2] came to 109.36%.
Turning to `COC(=O)c1nc2ncnc(NCc3ccccc3)c2[nH]1` [Compound 188], the “Activity (%)” value in [10] came to 122.51%; in data set [2] it was 148.91%. The entries for the “Concentration with highest activity” value in [10] and in data set [2] (increase in fresh callus weight after four weeks) were 10^−4 mol/l and 10^−6 mol/l, respectively.
In the case of `CCOC(=O)c1nc2ncnc(NCc3ccccc3)c2[nH]1` [Compound 195, 6-Benzylamino-8-ethoxycarbonylpurine], the melting point lay in the range of 181 to 185 °C. In addition, in [1], the “Activity (%)” value is on record as 122.06 (±2) % and the “Concentration with highest activity” value is given as 10^−4 mol/l. Also, in data set [10], the “Activity (%)” value amounted to 122.55% and the “Concentration with highest activity” value is given as 10^−4 mol/l.
`NCCCNc1nc2ncnc(NCc3ccccc3)c2[nH]1` [Compound 209, 8-(3-Aminopropylamino)-6-benzylaminopurine] displayed a melting point of 170 to 173 °C. In addition, the “Activity (%)” value in data set [2] was determined as 150.01%. In addition, the IC50 in data set [3] is > 50 µmol/L. Further, the IC50 in [4] was > 50 µmol/L. In addition, the IC50 in data set [5] is > 50 µmol/L. The IC50 in data set [6] was > 50 µmol/L. Further, the IC50 in data set [7] is > 50 µmol/L. Further, in data set [8], the IC50 was > 50 µmol/L. Also, the GI20 in data set [9] is >100 µM.
Consider `c1coc(CNc2ncnc3[nH]cnc23)c1` [kinetin, reference compound], for which the “Activity (%)” value in data set [1], in data set [10] and in data set [2] was 100% in each case. The figures for the “Concentration with highest activity” value in [1] and in [10] were 10^−4 mol/l and 10^−5 mol/l, respectively. In addition, the “range of the optimal concentration” value in data set [2] (tobacco callus growth) was “sharp concentration optimum”.
